Reference: US11840521B2, “Modulators of Mas-related G-protein receptor X4 and related products and methods” (Escient Pharmaceuticals, Inc., priority 2019, dated 2023)
Read-outs that look alike come from different tables or passages of the source.

Target: MRGPRX4 (Homo sapiens, UniProt Q96LA9)
Experiment: MRGPR X4 antagonist activity, IP-One Gq HTRF assay in stably transfected HEK cells (versus agonist bilirubin, deoxycholic acid, conjugated bilirubin, urobilin, obeticholic acid or BAR502)
Assay type: cell-based
Design: expressed in transfected cells; host or cells: HEK cells, stably transfected
Protocol: HEK cells stably transfected to express human MRGPR X4 were maintained in an incubator at 37° C. with 5% CO2 and grown in DMEM media with 10% fetal bovine serum (FBS) and 1% each of sodium pyruvate, Glutamax, penicillin/streptomycin, and Geneticin. HEK cells stably transfected to express mouse MRGPR A1 were maintained in the same incubator and grown in DMEM media with 10% FBS, 1% each of sodium pyruvate, Glutamax, penicillin/streptomycin, Geneticin, and 2.2 mg/mL Hygromycin.
Cells were plated in a 384-well assay plate at 20,000 cells per well in 12 μL of Opti-MEM and kept in an incubator overnight. On the day of the assay, compounds solubilized at 10 mM in DMSO were added as a 10-point curve (10 uM final top concentration with 1:3 serial dilutions) using a Tecan D300E digital dispenser. […] Final concentrations of DMSO were kept consistent across the plate. Plates were incubated in the dark for 1 h at 37° C. and then for 30 minutes at room temperature. IP-1 standards and HTRF detection reagents were added according to the IP-One—Gq Kit purchased from Cisbio (part number 62IPAPEJ) and incubated in the dark for 1 h at room temperature. The plate was read on a Molecular Devices SpectraMax iD5 plate reader. The HTRF ratio was calculated from the raw data and graphed using GraphPad Prism to calculate an IC50 value for each compound.

[1] = versus 10 μM Bilirubin agonist, HEK cells expressing human MRGPR X4, read-out: MRGPR4 Antagonist Activity
[2] = versus 10 μM Bilirubin agonist, read-out: IC50 (Bilirubin agonist)
[3] = versus 20 μM deoxycholic acid, read-out: IC50 (Deoxycholic Acid agonist)
[4] = versus 20 μM obeticholic acid, read-out: IC50 (Obeticholic Acid Agonist)
[5] = versus 50 μM urobilin, read-out: IC50 (Urobilin Agonist)
[6] = versus 100 μM conjugated bilirubin, read-out: IC50 (Conjugated Bilirubin Agonist)

MRGPRX4, sequence (Q96LA9 whole entry): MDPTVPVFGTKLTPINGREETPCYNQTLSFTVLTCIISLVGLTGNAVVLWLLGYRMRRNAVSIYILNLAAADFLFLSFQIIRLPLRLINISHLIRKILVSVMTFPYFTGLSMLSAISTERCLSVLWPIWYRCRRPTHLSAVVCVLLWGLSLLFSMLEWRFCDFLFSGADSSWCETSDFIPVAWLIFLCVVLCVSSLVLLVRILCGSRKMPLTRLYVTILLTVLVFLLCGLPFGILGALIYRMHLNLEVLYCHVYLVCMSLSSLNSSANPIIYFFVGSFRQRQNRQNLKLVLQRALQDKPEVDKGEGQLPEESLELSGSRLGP

## FC(F)c1cccc(COc2ccc(C(F)(F)F)cc2Cl)c1 [Compound 50-1, 2-chloro-1-((3-(difluoromethyl)benzyl)oxy)-4-(trifluoromethyl)benzene]
[1]
  IC50: 1000 to 2500 nM

## O=C(O)c1cc(F)cc(COc2ccc(OC(F)(F)F)cc2Cl)c1 [Compound 1-121]
[1]
  IC50: 100 to 500 nM

## O=C(O)c1nc(COc2ccc(C(F)(F)F)cc2Cl)ccc1F [Compound 4-18]
[1]
  IC50: < 100 nM

## COC1CCN(C(=O)c2cccc(COc3ccc(C(F)(F)F)cc3Cl)c2)CC1 [Compound 52-14]
[1]
  IC50: 1000 to 2500 nM

## O=C(O)c1cccc(COc2ccc(OC(F)(F)F)cc2Cl)n1 [Compound 1-125]
[1]
  IC50: < 100 nM

## O=C(O)c1cccc(COc2cccc(Cl)c2Cl)c1 [Compound 3-4]
[1]
  IC50: 100 to 500 nM

## O=C(O)c1cccc(COc2ccc(Cl)c(F)c2Cl)c1 [Compound 1-148]
[1]
  IC50: < 100 nM

## CCCCNC(=O)c1cccc(COc2ccc(C(F)(F)F)cc2Cl)c1 [Compound 52-7]
[1]
  IC50: 100 to 500 nM

## Cc1cc(Cl)cc(Cl)c1OCc1cccc(C(=O)O)c1 [Compound 1-50]
[1]
  IC50: 1000 to 2500 nM

## O=C(O)c1cccc(CNc2ccc(C(F)(F)F)cc2Cl)n1 [Compound 12-3]
[1]
  IC50: < 100 nM

## O=C(O)c1cccc(COc2ccc(C(F)F)cc2F)c1 [Compound 33-4]
[1]
  IC50: 100 to 500 nM

## CC(C)[C@H](NC(=O)c1cccc(COc2ccc(C(F)(F)F)cc2Cl)c1)C(=O)O [Compound 54-1, (3-((2-chloro-4-(trifluoromethyl)phenoxy)methyl)benzoyl)-L-valine]
[1]
  IC50: 100 to 500 nM

## Cc1cc(COc2ccc(Cl)cc2Cl)cc(C(=O)O)c1 [Compound 4-7]
[1]
  IC50: < 100 nM

## CCOc1ccc(OCc2cccc(C(=O)O)c2)cc1 [Compound 1-45]
[1]
  IC50: 1000 to 2500 nM

## O=C(O)c1cccc(COc2ccc3c(c2)OC(F)(F)O3)c1 [Compound 1-61]
[1]
  IC50: 500 to 1000 nM

## O=C(O)c1cc(F)cc(COc2ccc3ccccc3c2)c1 [Compound 9-3]
[1]
  IC50: < 100 nM

## O=C(O)c1ccc(COc2ccc(Cl)cc2Cl)cc1 [Compound 1-113]
[1]
  IC50: 500 to 1000 nM

## COC(=O)c1cccc(COc2ccc(C(F)(F)F)cc2Cl)c1F [Compound 1-117]
[1]
  IC50: 500 to 1000 nM

## COc1ccc(OCc2cccc(C(=O)O)c2)c(Cl)c1 [Compound 1-92]
[1]
  IC50: 1000 to 2500 nM

## Cc1ccc(OCc2cccc(C(=O)O)c2)c(Cl)c1Cl [Compound 1-143]
[1]
  IC50: < 100 nM

## O=C(O)c1cccc(COc2ccc(F)cc2Cl)c1 [Compound 1-24]
[1]
  IC50: > 2500 nM

## Cc1cc(COc2ccc(Cl)c(Cl)c2Cl)nc(C(=O)O)c1 [Compound 2-4]
[1]
  IC50: < 100 nM

## O=C(O)c1cccc(COc2ccc(C(F)(F)F)cc2C(F)(F)F)c1 [Compound 1-73]
[1]
  IC50: < 100 nM

## O=C(O)c1cccc(COc2c(Cl)cccc2Cl)c1 [Compound 1-25]
[1]
  IC50: > 2500 nM

## O=C(O)c1cccc(COc2ccc3ccsc3c2)c1 [Compound 1-97]
[1]
  IC50: 100 to 500 nM

## NC(=O)CC[C@H](NC(=O)c1cccc(COc2ccc(C(F)(F)F)cc2Cl)c1)C(=O)O [Compound 55-3]
[1]
  IC50: 100 to 500 nM

## COc1ccc(COc2ccc(Cl)cc2Cl)cc1C(=O)O [Compound 1-32]
[1]
  IC50: 1000 to 2500 nM

## COC(=O)c1cccc(COc2ccc(Cl)cc2C)n1 [Compound 1-13]
[1]
  IC50: 100 to 500 nM

## N#Cc1cc(CCc2ccc(C(F)(F)F)cc2Cl)cc(C(=O)O)c1 [Compound 61-1, 3-(2-chloro-4-(trifluoromethyl)phenethyl)-5-cyanobenzoic acid]
[1]
  IC50: 100 to 500 nM

## N#Cc1ccc(OCc2cccc(C(=O)O)c2)c(C(F)(F)F)c1 [Compound 1-68]
[1]
  IC50: 100 to 500 nM

## Fc1c(COc2ccc(C(F)(F)F)cc2Cl)cccc1-c1nnn[nH]1 [Compound 17-15]
[1]
  IC50: < 100 nM

## Clc1ccc(OCc2cccc(-c3nnn[nH]3)c2)c(Cl)c1Cl [Compound 17-4]
[1]
  IC50: < 100 nM
[2]
  IC50: 5 nM
[3]
  IC50: 6 nM
[4]
  IC50: 8 nM
[5]
  IC50: 6 nM
[6]
  IC50: 7 nM

## O=C(O)c1cccc(CSc2ccc(Cl)cc2Cl)c1 [Compound 15-1, 3-(((2,4-dichlorophenyl)thio)methyl)benzoic acid]
[1]
  IC50: 100 to 500 nM

## O=C(O)c1cccc(COc2ccc(Cl)cc2)n1 [Compound 1-36]
[1]
  IC50: 500 to 1000 nM

## Cc1cc(C#N)ccc1OCc1cccc(C(=O)O)c1 [Compound 1-99]
[1]
  IC50: 100 to 500 nM

## O=C(O)c1cccc(COc2cc(Cl)ccc2Cl)c1 [Compound 1-19]
[1]
  IC50: 1000 to 2500 nM

## O=C(O)c1ccccc1COc1ccc(Cl)cc1Cl [Compound 1-114]
[1]
  IC50: 1000 to 2500 nM

## Cc1cc(OCc2cccc(C(=O)O)c2)ccc1Cl [Compound 1-72]
[1]
  IC50: 500 to 1000 nM

## COc1ccc(OCc2cccc(C(=O)O)c2)cc1 [Compound 1-38]
[1]
  IC50: 100 to 500 nM

## Cc1cc(COc2ccc(C(F)(F)F)cc2Cl)nc(C(=O)O)c1 [Compound 41-2]
[1]
  IC50: < 100 nM

## CS(=O)(=O)NC(=O)c1cccc(COc2ccc(C(F)(F)F)cc2Cl)c1 [Compound 52-20]
[1]
  IC50: 100 to 500 nM

## N#Cc1cc(Cl)c(F)cc1OCc1cccc(C(=O)O)c1 [Compound 1-153]
[1]
  IC50: 100 to 500 nM

## NC(=O)CNC(=O)c1cccc(COc2ccc(C(F)(F)F)cc2Cl)c1 [Compound 52-22]
[1]
  IC50: 100 to 500 nM

## CCOc1ccccc1OCc1cccc(C(=O)O)c1 [Compound 1-84]
[1]
  IC50: 1000 to 2500 nM

## N#Cc1cccc(COc2ccc(Cl)cc2Cl)c1 [Compound 3-1]
[1]
  IC50: 500 to 1000 nM

## O=C(NCS(=O)(=O)O)c1ccc(COc2ccc(C(F)(F)F)cc2Cl)cc1 [Compound 52-3]
[1]
  IC50: 100 to 500 nM

## COC(=O)c1cccc(COc2ccc3scnc3c2)c1 [Compound 1-8]
[1]
  IC50: > 2500 nM

## Fc1ccc(OCc2cccc(-c3nnn[nH]3)c2)c(Cl)c1 [Compound 17-7]
[1]
  IC50: < 100 nM

## O=C(NCCO)c1cccc(COc2ccc(C(F)(F)F)cc2Cl)c1 [Compound 52-16]
[1]
  IC50: 100 to 500 nM

## O=C(O)c1cccc(COc2ccc(C(F)(F)F)cc2)c1 [Compound 1-41]
[1]
  IC50: 100 to 500 nM

## N#Cc1ccc(COc2ccc(Cl)cc2Cl)cc1C(=O)O [Compound 5-2]
[1]
  IC50: 1000 to 2500 nM

## O=C(O)c1cccc(COc2ccc(Cl)c(Cl)c2Cl)c1F [Compound 1-124]
[1]
  IC50: < 100 nM

## O=C(O)Cc1cccc(COc2ccc(Cl)cc2Cl)c1 [Compound 64-1, 2-(3-((2,4-dichlorophenoxy)methyl)phenyl)acetic acid]
[1]
  IC50: > 2500 nM

## Cc1cc(F)ccc1OCc1cccc(C(=O)O)c1 [Compound 1-94]
[1]
  IC50: 1000 to 2500 nM

## O=C(O)c1cccc(Oc2ccc([N+](=O)[O-])cc2Cl)c1 [Compound 16-2]
[1]
  IC50: > 2500 nM

## O=C(O)c1cc(COc2ccc(C(F)(F)F)cc2Cl)ccn1 [Compound 1-137]
[1]
  IC50: 100 to 500 nM

## O=C(O)c1cccc(COc2ccccc2F)c1 [Compound 1-40]
[1]
  IC50: 1000 to 2500 nM

## O=C(O)c1cc(Cl)cc(COc2ccc(Cl)cc2Cl)c1 [Compound 2-1, 3-chloro-5-((2,4-dichlorophenoxy)methyl)benzoic acid]
[1]
  IC50: < 100 nM

## O=C(O)c1cccc(COc2ccc(OC(F)(F)F)cc2Cl)c1 [Compound 1-103]
[1]
  IC50: < 100 nM

## N#Cc1cc(COc2ccc(Cl)cc2Cl)cc(C(=O)O)c1 [Compound 5-1, 3-cyano-5-((2,4-dichlorophenoxy)methyl)benzoic acid]
[1]
  IC50: < 100 nM
[2]
  IC50: 10 nM
[3]
  IC50: 23 nM
[4]
  IC50: 6 nM
[5]
  IC50: 6 nM
[6]
  IC50: 27 nM

## O=C(O)c1cccc(COc2ccc3ccccc3c2)c1F [Compound 1-58]
[1]
  IC50: < 100 nM

## O=C(O)c1cccc(COc2ccc3c(c2)C(=O)CCC3)c1 [Compound 1-151]
[1]
  IC50: > 2500 nM

## O=C(O)c1cccc(COc2cccc3c2CCC3)c1 [Compound 1-33]
[1]
  IC50: 1000 to 2500 nM

## N#Cc1ccc(OCc2cccc(C(=O)O)c2)c(Cl)c1 [Compound 1-35]
[1]
  IC50: 100 to 500 nM

## O=C(O)c1cc(F)cc(COc2ccc(Cl)cc2Cl)c1 [Compound 4-4]
[1]
  IC50: < 100 nM

## N#Cc1cc(COc2ccc(C(F)(F)F)cc2Cl)nc(C(=O)O)c1 [Compound 43-1, 6-((2-chloro-4-(trifluoromethyl)phenoxy)methyl)-4-cyano-pyridine-2-carboxylic acid]
[1]
  IC50: < 100 nM

## COC(=O)c1cccc(COc2ccc(N3CCOCC3)cc2)c1 [Compound 1-7]
[1]
  IC50: 1000 to 2500 nM

## CC(C)c1ccccc1OCc1cccc(C(=O)O)c1 [Compound 1-146]
[1]
  IC50: > 2500 nM

## O=C(O)c1cccc(COc2ccc(F)cc2C(F)(F)F)c1 [Compound 1-91]
[1]
  IC50: 500 to 1000 nM

## Cc1cc(C(F)(F)F)ccc1OCc1cc(C#N)cc(C(=O)O)c1 [Compound 32-2]
read-out: IC50 (10 μM BAR502) nM, MRGPRX4 antagonists versus 10 μM BAR502 agonist
  IC50: 17 nM
[1]
  IC50: < 100 nM

## COC(=O)c1cccc(COc2ccc(C(F)(F)F)cc2Cl)c1 [Compound 1-2]
[1]
  IC50: 100 to 500 nM

## COc1ccccc1OCc1cccc(C(=O)O)c1 [Compound 1-37]
[1]
  IC50: 100 to 500 nM

## FC(F)(F)c1ccc(OCc2cccc(-c3nnn[nH]3)n2)c(Cl)c1 [Compound 17-6]
[1]
  IC50: < 100 nM

## Cc1ccc(OCc2cccc(C(=O)O)c2)cc1F [Compound 1-89]
[1]
  IC50: 100 to 500 nM

## COC(=O)c1cccc(COc2ccc(Cl)cc2C(F)(F)F)c1 [Compound 1-1]
[1]
  IC50: 1000 to 2500 nM
